Data published in US20210045385A1, “PYRIDAZINONE-SUBSTITUTED KETOXIMES AS HERBICIDES” (FMC Corporation, priority 2018, published 2021).

Key:
Assay type in all cases: in vivo
[1] = test system: duck salad (Heteranthera limosa); assay: Test D flooded paddy test, visual plant response rating; conditions: 250 g ai/ha, scale 0 to 100 (0 no effect, 100 complete control), 13 to 15 d
Summary of the method: (§1)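 Plants grown to the 2-leaf stage; pots flooded to 3 cm above soil and compound applied directly into paddy water, depth held throughout. Kept in greenhouse 13 to 15 d, then rated visually against untreated controls on a 0–100 scale (0 no effect, 100 complete control).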

rice (Oryza sativa) = assay: as above; conditions: 250 g ai/ha, scale 0 to 100 (0 no effect, 100 complete control), 13 to 15 d
Summary of the method: as §1

[2] = test system: barnyardgrass (Echinochloa crus-galli); assay: as above; conditions: 250 g ai/ha, scale 0 to 100 (0 no effect, 100 complete control), 13 to 15 d
Summary of the method: as §1

[3] = test system: sedge umbrella (small-flower umbrella sedge, Cyperus difformis); assay: as above; conditions: 250 g ai/ha, scale 0 to 100 (0 no effect, 100 complete control), 13 to 15 d
Summary of the method: as §1

[4] = test system: pigweed (Amaranthus retroflexus); assay: Test C preemergence, visual plant response rating
Summary of the method: (§2)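 Seeds sown in a loam–sand blend got a directed preemergence soil spray; postemergence plants (2–10 cm, one- to two-leaf stage) were sprayed with compound in a non-phytotoxic solvent plus surfactant. Injury was scored visually against untreated controls after about 10 d in a greenhouse on a 0–100 scale (100 = complete control).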

kochia (Bassia scoparia) [5] = assay: Test C preemergence, visual plant response rating
Summary of the method: as §2

[6] = test system: Italian ryegrass (Lolium mutiflorum); assay: Test C preemergence, visual plant response rating
Summary of the method: as §2

[7] = test system: barnyardgrass (Echinochloa crus-galli); assay: Test C preemergence, visual plant response rating
Summary of the method: as §2

[8] = test system: ragweed (common ragweed, Ambrosia artemisiifolia); assay: Test C preemergence, visual plant response rating
Summary of the method: as §2

[9] = test system: foxtail, giant (giant foxtail, Setaria faberi); assay: Test C preemergence, visual plant response rating
Summary of the method: as §2

[10] = test system: pigweed (Amaranthus retroflexus); assay: Test C postemergence, visual plant response rating
Summary of the method: as §2

kochia (Bassia scoparia) [11] = assay: Test C postemergence, visual plant response rating
Summary of the method: as §2

corn (Zea mays) = assay: Test C postemergence, visual plant response rating
Summary of the method: as §2

[12] = test system: blackgrass (Alopecurus myosuroides); assay: Test C postemergence, visual plant response rating
Summary of the method: as §2

[13] = test system: wheat (Triticum aestivum); assay: Test C postemergence, visual plant response rating
Summary of the method: as §2

[14] = test system: Italian ryegrass (Lolium mutiflorum); assay: Test C postemergence, visual plant response rating
Summary of the method: as §2

[15] = test system: galium (catchweed bedstraw, Galium aparine); assay: Test C postemergence, visual plant response rating
Summary of the method: as §2

[16] = test system: barnyardgrass (Echinochloa crus-galli); assay: Test C postemergence, visual plant response rating
Summary of the method: as §2

[17] = test system: ragweed (common ragweed, Ambrosia artemisiifolia); assay: Test C postemergence, visual plant response rating
Summary of the method: as §2

[18] = test system: foxtail, giant (giant foxtail, Setaria faberi); assay: Test C postemergence, visual plant response rating
Summary of the method: as §2

[19] = Test C, 31 g ai/ha, 0 is no effect, 100 is complete control
[20] = Test C, postemergence, 125 g ai/ha
[21] = Test C, postemergence, 31 g ai/ha
[22] = Test C, 125 g ai/ha, 0 is no effect, 100 is complete control

Compound | Plant response rating, Ducksalad (Flood) [1] | Plant response rating, Rice (Flood) (rice (Oryza sativa)) | Plant response rating, Barnyardgrass (Flood) [2] | Plant response rating, Sedge, Umbrella (Flood) [3] | Pigweed plant response rating (0 to 100 scale) [4, 19] | Kochia plant response rating (0 to 100 scale) (kochia (Bassia scoparia) [5]; [19]) | Ryegrass, Italian plant response rating (0 to 100 scale) [6, 19] | Barnyardgrass plant response rating (0 to 100 scale) [7, 19] | Ragweed plant response rating (0 to 100 scale) [8, 19] | Foxtail, Giant plant response rating (0 to 100 scale) [9, 19] | Pigweed plant response rating (0 to 100 scale) ([10]; Postemergence, 31 g ai/ha) | Pigweed plant response rating (0 to 100 scale) [10, 20] | Kochia plant response rating (0 to 100 scale) (kochia (Bassia scoparia) [11]; [20]) | Corn plant response rating (0 to 100 scale) (corn (Zea mays); [20]) | Blackgrass plant response rating (0 to 100 scale) [12, 20] | Wheat plant response rating (0 to 100 scale) ([13]; Postemergence, 31 g ai/ha) | Wheat plant response rating (0 to 100 scale) [13, 20] | Ryegrass, Italian plant response rating (0 to 100 scale) ([14]; Postemergence, 31 g ai/ha) | Ryegrass, Italian plant response rating (0 to 100 scale) [14, 20] | Galium plant response rating (0 to 100 scale) [15, 20] | also measured
C#CCO/N=C(\c1cc(C)cc(Cl)c1)c1c(O)c(C)nn(C)c1=O [Compound 155] | 30 | 0 | 15 | 45 | 40 | 0 | 40 | 70 | 70 | 80 | 50 | 100 | 80 | 20 | 90 | 0 | 60 | 90 | 100 | 90 | Pigweed plant response rating (0 to 100 scale) ([4]; 125 g ai/ha): 100; Kochia plant response rating (0 to 100 scale) (kochia (Bassia scoparia) [5]; 125 g ai/ha): 90; Ryegrass, Italian plant response rating (0 to 100 scale) ([6]; 125 g ai/ha): 100; Barnyardgrass plant response rating (0 to 100 scale) ([7]; 125 g ai/ha): 100; Ragweed plant response rating (0 to 100 scale) ([8]; 125 g ai/ha): 90; Foxtail, Giant plant response rating (0 to 100 scale) ([9]; 125 g ai/ha): 90; Kochia plant response rating (0 to 100 scale) (kochia (Bassia scoparia) [11]; [21]): 70; Corn plant response rating (0 to 100 scale) (corn (Zea mays); [21]): 0; Blackgrass plant response rating (0 to 100 scale) [12, 21]: 30; Galium plant response rating (0 to 100 scale) [15, 21]: 90; Barnyardgrass plant response rating (0 to 100 scale) [16, 21]: 50; Barnyardgrass plant response rating (0 to 100 scale) [16, 20]: 80; Ragweed plant response rating (0 to 100 scale) ([17]; Postemergence, 31 g ai/ha): 90; Ragweed plant response rating (0 to 100 scale) [17, 20]: 100; Foxtail, Giant plant response rating (0 to 100 scale) [18, 21]: 80; Foxtail, Giant plant response rating (0 to 100 scale) [18, 20]: 90
Cc1nn(C)c(=O)c(/C(=N/OCCO)c2cccc3cc(Cl)ccc23)c1O [Compound 240] | 0 | 0 | 15 | 0 | 50 | 0 | 0 | 0 | 0 | 10 | 70 | 80 | 0 | 0 | 10 | 0 | 0 | 0 | 0 | 50 | Pigweed plant response rating (0 to 100 scale) [4, 22]: 100; Kochia plant response rating (0 to 100 scale) (kochia (Bassia scoparia) [5]; [22]): 0; Ryegrass, Italian plant response rating (0 to 100 scale) [6, 22]: 0; Barnyardgrass plant response rating (0 to 100 scale) [7, 22]: 0; Ragweed plant response rating (0 to 100 scale) [8, 22]: 10; Foxtail, Giant plant response rating (0 to 100 scale) [9, 22]: 80; Kochia plant response rating (0 to 100 scale) (kochia (Bassia scoparia) [11]; Postemergence, 31 g ai/ha): 0; Corn plant response rating (0 to 100 scale) (corn (Zea mays); Postemergence, 31 g ai/ha): 0; Blackgrass plant response rating (0 to 100 scale) ([12]; Postemergence, 31 g ai/ha): 0; Galium plant response rating (0 to 100 scale) ([15]; Postemergence, 31 g ai/ha): 20; Barnyardgrass plant response rating (0 to 100 scale) ([16]; Postemergence, 31 g ai/ha): 0; Barnyardgrass plant response rating (0 to 100 scale) [16, 20]: 20; Ragweed plant response rating (0 to 100 scale) ([17]; Postemergence, 31 g ai/ha): 0; Ragweed plant response rating (0 to 100 scale) [17, 20]: 0; Foxtail, Giant plant response rating (0 to 100 scale) ([18]; Postemergence, 31 g ai/ha): 0; Foxtail, Giant plant response rating (0 to 100 scale) [18, 20]: 0
CON=C(c1cccc(OC)c1)c1c(O)c(C)nn(C)c1=O [Compound 204] | 0 | 0 | 0 | 0 | 0 | 0 | 0 | 0 | 0 | 0 | 0 | 10 | 10 | 0 | 0 | 0 | 0 | 0 | 0 | 40 | Pigweed plant response rating (0 to 100 scale) [4, 22]: 0; Kochia plant response rating (0 to 100 scale) (kochia (Bassia scoparia) [5]; [22]): 0; Ryegrass, Italian plant response rating (0 to 100 scale) [6, 22]: 0; Barnyardgrass plant response rating (0 to 100 scale) [7, 22]: 0; Ragweed plant response rating (0 to 100 scale) [8, 22]: 0; Foxtail, Giant plant response rating (0 to 100 scale) [9, 22]: 0; Kochia plant response rating (0 to 100 scale) (kochia (Bassia scoparia) [11]; Postemergence, 31 g ai/ha): 0; Corn plant response rating (0 to 100 scale) (corn (Zea mays); Postemergence, 31 g ai/ha): 0; Blackgrass plant response rating (0 to 100 scale) ([12]; Postemergence, 31 g ai/ha): 0; Galium plant response rating (0 to 100 scale) ([15]; Postemergence, 31 g ai/ha): 10; Barnyardgrass plant response rating (0 to 100 scale) ([16]; Postemergence, 31 g ai/ha): 0; Barnyardgrass plant response rating (0 to 100 scale) [16, 20]: 0; Ragweed plant response rating (0 to 100 scale) ([17]; Postemergence, 31 g ai/ha): 0; Ragweed plant response rating (0 to 100 scale) [17, 20]: 0; Foxtail, Giant plant response rating (0 to 100 scale) ([18]; Postemergence, 31 g ai/ha): 0; Foxtail, Giant plant response rating (0 to 100 scale) [18, 20]: 0
C=CCO/N=C(/c1c(O)c(C)nn(C)c1=O)c1cccc2cc(Cl)ccc12 [Compound 246] | 95 | 90 | 90 | 100 | 90 | 0 | 30 | 60 | 100 | 80 | 70 | 80 | 20 | 10 | 70 | 0 | 0 | 0 | 30 | 90 | Pigweed plant response rating (0 to 100 scale) [4, 22]: 100; Kochia plant response rating (0 to 100 scale) (kochia (Bassia scoparia) [5]; [22]): 0; Ryegrass, Italian plant response rating (0 to 100 scale) [6, 22]: 60; Barnyardgrass plant response rating (0 to 100 scale) [7, 22]: 80; Ragweed plant response rating (0 to 100 scale) [8, 22]: 90; Foxtail, Giant plant response rating (0 to 100 scale) [9, 22]: 80; Kochia plant response rating (0 to 100 scale) (kochia (Bassia scoparia) [11]; Postemergence, 31 g ai/ha): 0; Corn plant response rating (0 to 100 scale) (corn (Zea mays); Postemergence, 31 g ai/ha): 20; Blackgrass plant response rating (0 to 100 scale) ([12]; Postemergence, 31 g ai/ha): 50; Galium plant response rating (0 to 100 scale) ([15]; Postemergence, 31 g ai/ha): 80; Barnyardgrass plant response rating (0 to 100 scale) ([16]; Postemergence, 31 g ai/ha): 40; Barnyardgrass plant response rating (0 to 100 scale) [16, 20]: 70; Ragweed plant response rating (0 to 100 scale) ([17]; Postemergence, 31 g ai/ha): 80; Ragweed plant response rating (0 to 100 scale) [17, 20]: 100; Foxtail, Giant plant response rating (0 to 100 scale) ([18]; Postemergence, 31 g ai/ha): 70; Foxtail, Giant plant response rating (0 to 100 scale) [18, 20]: 70
